Experimental data taken from US7378246B2, “Methods and compositions for regulating adipogenesis” (The Board of Trustees of the Leland Stanford Junior …, priority 2002, dated 2008).
Structures can show the parent of a compound that is named as a salt.

Tests used:
Assay type in all cases: cell-based
PPARγ2 = PPARγ2 mRNA expression in L1 cells, Northern blotting; details: for PPARγ2 expression in L1 cells with ectopic expression: retroviral infection, RNA on Day 2 after IDM stimulation (FIG. 7B); for PPARγ2 expression in L1 cells: 50 μM CoCl2 or 100 μM DFO during induction (FIG. 3C)
Procedure: Total cellular RNA was isolated with Trizol reagent (Life Technologies). The following plasmids were used for cDNA template preparations by restriction digest: MSV-C/EBPβ and MSV-C/EBPδ (S. L. McKnight, Univ. Texas Southwestern Medical Center, Dallas, Tex.), pSVsport-PPARγ2 (B. M. Spiegelman), pBS-Stra13 (P. Chambon, INSERM, Strasbourg, France). Hybridization was carried out at 65° C. for 6 to 12 hr. The radioactive blot was visualized on Storm 860 PhosphoImager (Molecular Dynamics, Sunnyvale, Calif.).

3T3-L1 preadipocytes = test: Adipocyte differentiation of 3T3-L1 (L1) cells, Oil Red O staining; details: for adipocyte differentiation of L1 cells on retroviral overexpression: retroviral infection, vs vector control pLXSN, stained Day 5 (FIG. 7A); for differentiation of C/EBPβ-expressing L1 cells: agent present for first 2 days of adipogenic induction, 50 μM CoCl2 or 100 μM DFO (FIG. 4B); for differentiation and/or fat accumulation of C/EBPβ-expressing L1 cells: continuous presence (6 days), 50 μM CoCl2 or 100 μM DFO, 20% O2 (FIG. 4B); for differentiation of PPARγ2-expressing L1 cells: stimulated by rosiglitazone, 50 μM CoCl2 or 100 μM DFO for 6 days (FIG. 4C)
Procedure: Based on previously described procedure (Wu et al., 1996), L1 cells were maintained in GM for 2 days after confluence. The confluent cells were treated (day 0) with differentiation medium (DM) containing 10% FBS, 10 μg/ml INS, 1 μM DEX and 0.5 mM MIX in DMEM for 2 days. Cells were then maintained in DMEM containing 10% FBS and 1 μg/ml INS, and the medium was replaced every other day.
(§1) To evaluate the effects of hypoxia on adipogenesis, cells were maintained at 20% O2 in standard incubator, 2% O2 in standard incubator or 0.01% O2 in an anaerobic chamber immediately following treatment with DM. Alternatively, CoCl2 or DFO was added to DM at indicated concentrations either during the initial stage of stimulation or for the entire course of differentiation.
(§2) For visualization of differentiated adipocytes, cells were washed with phosphate-buffered saline (PBS) and stained in 60% of the Oil Red O stock solution (0.5 g Oil Red O in 100 ml of isopropanol) for 30 min at 37° C. Cells were briefly washed in 60% isopropanol and then rinsed in distilled water for microscopic observation and photography.
Retroviruses were produced using the phoenix cell system (Baker et al., 1992; Pear et al., 1993). L1 cells at 30-50% confluence were retrovirally infected 2-3 times with 8 μg/ml Polybrene by centrifugation at 1800-2000 rpm for 1 hr, followed by overnight incubation at 32° C. For generation of stable C/EBPβ-expressing cells, L1 cells were infected with pBABEpuro or pBABEpuro-C/EBPβ (S. R. Farmer, Boston University, Boston, Mass.), followed by selection with 1 μg/ml of puromycin (Sigma). The stable cells were grown to confluence and induced to differentiate as described above. For transient infection with pBABEpuro, pBABEpuor-PPARγ2 (B. M. Spiegelman, Harvard University, Boston, Mass.), pLXSN/HA-DEC1, pLXSN-DEC1 and pLXSN-N1, L1 cells were spin-infected and induced to differentiate as described above.

[1] = system: Mouse embryonic fibroblast (MEF) cells; test: Adipocyte differentiation of MEFs, Oil Red O staining; details: for adipogenesis of MEF cells: DM with 5 μM rosiglitazone, CoCl2 25 μM or DFO 25 μM, stained Day 6 (FIG. 1C); for adipocyte differentiation of control-treated MEF cells: control adenovirus, same conditions as cre-treated MEFs (FIG. 2); for adipocyte differentiation of HIF-1α deficient MEF cells: cre-treated MEFs, CoCl2 up to 50 μM, DFO up to 25 μM, entire course (FIG. 2)
Procedure: MEFs were induced to differentiate 2 days after confluence (day 0) with DM supplemented with 5 μM rosiglitazone (Alexander et al., 1998; Lehmann et al., 1995). The medium was replaced on Day 3 with DMEM plus 10% FBS, 1 μg/ml INS and 5 μM rosiglitazone, and was then changed every other day. To remove the HIF-1α gene, subconfluent culture of MEFs with HIF-1α alleles flanked by loxP sites were treated with adenovirus containing cre recombinase or control adenovirus at the multiplicity of infection (MOI) of 50 as previously described (Seagroves et al., 2001). The treated MEF cells were grown to confluence for 2 days before they were induced to differentiate as above.
as §1, §2

PPARγ2 promoter = PPARγ2 promoter luciferase reporter assay in NIH-3T3 cells; details: for repression of PPARγ2 promoter activity by DEC1 fragments: 0.6-kb PPARγ2 promoter luciferase, co-transfected DEC1 fragments, 0.3 μg DNA each (FIG. 6A)
Procedure: The luciferase reporter construct pX2) under the control of the −603 to +62 PPARγ2 proximal promoter fragment (PPAR) or other deletional subclones was used as described (Tong et al., 2000). NIH-3T3 cells were transiently co-transfected with 0.3 μg each of pXP2 or PPAR and pcDNA3.1His construct expressing a DEC1 fragment using LipofectAmine Plus reagents (Life Technologies). Luciferase activities in cell lysates were measured in triplicates after 40-48 hr of incubation using Monolight 2010 Luminometer (Analytical Luminescence Laboratory, Ann Arbor, Mich.). The luciferase activity is expressed in relation to protein concentrations that vary little from well to well. Alternatively, a Renilla luciferase reporter was co-transfected as a control for transfection efficiency.

[2] = agent for first 2 days of induction with IDM, CoCl2 50 μM, DFO 100 μM, stained Day 6 (FIG. 1B)
[3] = agent in treatment media throughout the course of induction (6 days)

HA-DEC1: HA-tagged full-length DEC1 expressed from pLXSN/HA-DEC1
PPARγ2 expression in L1 cells with ectopic expression (PPARγ2): repressed
adipocyte differentiation of L1 cells on retroviral overexpression (3T3-L1 preadipocytes): nearly complete inhibition of adipocyte differentiation

CN(CCOc1ccc(CC2SC(=O)NC2=O)cc1)c1ccccn1 (centres unmarked) [rosiglitazone]
MEF cells that differentiate into adipocytes ([1]; IDM supplemented with 5 μM rosiglitazone): 15-20%

DEC1: full-length DEC1 bHLH transcription repressor, expressed from pcDNA3.1-DEC1 or pLXSN-DEC1
PPARγ2 expression in L1 cells with ectopic expression (PPARγ2): repressed
adipocyte differentiation of L1 cells on retroviral overexpression (3T3-L1 preadipocytes): nearly complete inhibition of adipocyte differentiation
repression of PPARγ2 promoter activity (PPARγ2 promoter; 0.6-kb PPARγ2 promoter (−603 to +62) luciferase, compared to the vector control, co-transfection (FIG. 6A)): 70%
repression of FLΔBrS promoter (BrS deleted) (PPARγ2 promoter; 0.6-kb promoter with BsrGI-StuI fragment deleted (FIG. 6B)): no longer repressed

CC(=O)N(O)CCCCCNC(=O)CCC(=O)N(O)CCCCCNC(=O)CCC(=O)N(O)CCCCCN [DFO, deferoxamine mesylate]
PPARγ2 expression in L1 cells (PPARγ2): repressed
adipogenesis of MEF cells [1]: suppresses adipogenesis
adipocyte differentiation of control-treated MEF cells [1]: significantly represses differentiation
adipocyte differentiation of HIF-1α deficient MEF cells [1]: continue to undergo significant adipocyte differentiation
L1 cell differentiation (3T3-L1 preadipocytes; [2]): sufficient to prevent L1 cell differentiation
L1 cell differentiation (3T3-L1 preadipocytes; [3]): Inhibition of L1 cell differentiation
differentiation of C/EBPβ-expressing L1 cells (3T3-L1 preadipocytes): still able to differentiate into fat-laden adipocytes
differentiation and/or fat accumulation of C/EBPβ-expressing L1 cells (3T3-L1 preadipocytes): significantly reducing differentiation and/or fat accumulation
differentiation of PPARγ2-expressing L1 cells (3T3-L1 preadipocytes): majority of the PPARγ2-expressing cells differentiate into adipocytes

[Cl][Co][Cl] [CoCl2, Cobalt Chloride]
PPARγ2 expression in L1 cells (PPARγ2): repressed
adipogenesis of MEF cells [1]: suppresses adipogenesis
adipocyte differentiation of control-treated MEF cells [1]: significantly represses differentiation
adipocyte differentiation of HIF-1α deficient MEF cells [1]: continue to undergo significant adipocyte differentiation
L1 cell differentiation (3T3-L1 preadipocytes; [2]): sufficient to prevent L1 cell differentiation
L1 cell differentiation (3T3-L1 preadipocytes; [3]): Inhibition of L1 cell differentiation
differentiation of C/EBPβ-expressing L1 cells (3T3-L1 preadipocytes): still able to differentiate into fat-laden adipocytes
differentiation and/or fat accumulation of C/EBPβ-expressing L1 cells (3T3-L1 preadipocytes): significantly reducing differentiation and/or fat accumulation
differentiation of PPARγ2-expressing L1 cells (3T3-L1 preadipocytes): majority of the PPARγ2-expressing cells differentiate into adipocytes

B1: C2: C-terminal DEC1 fragment aa201-412 (protein, UniProt O14503 201-412, looked up, fragment)
chain: FKEKPSSPAKGSEGPGKNCVPVIQRTFAHSSGEQSGSDTDTDSGYGGESEKGDLRSEQPCFKSDHGRRFTMGERIGAIKQESEEPPTKKNRMQLSDDEGHFTSSDLISSPFLGPHPHQPPFCLPFYLIPPSATAYLPMLEKCWYPTSVPVLYPGLNASAAALSSFMNPDKISAPLLMPQRLPSPLPAHPSVDSSVLLQALKPIPPLNLETKD
repression of PPARγ2 promoter activity by DEC1 fragments (PPARγ2 promoter): do not inhibit PPARγ2 promoter activity

B2: C1: C-terminal DEC1 fragment aa121-412 (protein, UniProt O14503 121-412, looked up, fragment)
chain: LQSGLQAGELSGRNVETGQEMFCSGFQTCAREVLQYLAKHENTRDLKSSQLVTHLHRVVSELLQGGTSRKPSDPAPKVMDFKEKPSSPAKGSEGPGKNCVPVIQRTFAHSSGEQSGSDTDTDSGYGGESEKGDLRSEQPCFKSDHGRRFTMGERIGAIKQESEEPPTKKNRMQLSDDEGHFTSSDLISSPFLGPHPHQPPFCLPFYLIPPSATAYLPMLEKCWYPTSVPVLYPGLNASAAALSSFMNPDKISAPLLMPQRLPSPLPAHPSVDSSVLLQALKPIPPLNLETKD
repression of PPARγ2 promoter activity by DEC1 fragments (PPARγ2 promoter): do not inhibit PPARγ2 promoter activity

B3: N1: N-terminal DEC1 fragment aa1-141 containing the bHLH domain (protein, UniProt O14503 1-141, looked up, fragment)
chain: MERIPSAQPPPACLPKAPGLEHGDLPGMYPAHMYQVYKSRRGIKRSEDSKETYKLPHRLIEKKRRDRINECIAQLKDLLPEHLKLTTLGHLEKAVVLELTLKHVKALTNLIDQQQQKIIALQSGLQAGELSGRNVETGQEM
PPARγ2 expression in L1 cells with ectopic expression (PPARγ2): repressed
adipocyte differentiation of L1 cells on retroviral overexpression (3T3-L1 preadipocytes): Significant inhibition
